This note sets out measurements from ChEMBL document CHEMBL3351629, “Modulators of the nuclear receptor retinoic acid receptor-related orphan receptor-γ (RORγ or RORc)” (J Med Chem, 2014).

Assay [1] concerns the target T1, Nuclear receptor ROR-gamma (Homo sapiens, UniProt P51449).
T1 sequence (P51449 whole entry): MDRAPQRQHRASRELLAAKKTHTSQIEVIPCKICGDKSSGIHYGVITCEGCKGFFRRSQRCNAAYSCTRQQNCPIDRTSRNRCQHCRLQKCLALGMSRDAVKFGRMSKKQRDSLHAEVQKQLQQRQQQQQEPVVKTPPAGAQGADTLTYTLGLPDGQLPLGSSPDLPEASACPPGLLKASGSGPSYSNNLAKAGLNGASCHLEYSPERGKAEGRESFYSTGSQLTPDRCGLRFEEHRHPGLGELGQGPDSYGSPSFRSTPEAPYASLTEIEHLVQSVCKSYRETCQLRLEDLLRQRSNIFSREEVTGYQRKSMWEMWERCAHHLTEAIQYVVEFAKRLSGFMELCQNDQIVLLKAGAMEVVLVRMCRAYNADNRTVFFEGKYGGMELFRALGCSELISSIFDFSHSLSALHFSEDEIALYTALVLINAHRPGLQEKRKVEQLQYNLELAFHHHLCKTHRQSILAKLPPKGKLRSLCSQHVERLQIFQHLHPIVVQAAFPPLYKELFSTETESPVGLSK
Briefly: Inhibition of RORc (unknown origin) assessed as inhibition of fluorescein-D22 recruitment by TR-FRET assay. It counts as functional.

The target of assay [2] is T1, Nuclear receptor ROR-gamma. Briefly: Inverse agonist activity at human RoRc-LBD fusion protein with GST expressed in […] cells assessed as SRC1 coactivator peptide recruitment. The class given is functional, cell-based.
For assay [3], the target named is T2, Nuclear receptor ROR-gamma (Homo sapiens) (UniProt P51449).
T2 sequence (whole entry): T1 sequence (P51449 whole entry)
Description: Inverse agonist activity at human RoRc in human skin model assessed as suppression of IL-17A level relative to control. The class given is functional. Conditions: concentration not given here.

In assay [4] the target is T2, Nuclear receptor ROR-gamma (Homo sapiens). Description: Inverse agonist activity at human RoRc in human skin model assessed as suppression of IL-22 level relative to control. Conditions: concentration not given here.
Assay [5] addresses T1, Nuclear receptor ROR-gamma. Description: Binding affinity to RORgamma (unknown origin).
In assay [6] the target is T2, Nuclear receptor ROR-gamma (Homo sapiens). Briefly: Activity at human RoRc in human Jurkat cells assessed as inhibition of IL-17 promoter at 3 uM relative to control. It counts as cell-based.
In assay [7] the target is T3, Nuclear receptor ROR-gamma (Mus musculus) (UniProt P51450).
T3 sequence (whole entry): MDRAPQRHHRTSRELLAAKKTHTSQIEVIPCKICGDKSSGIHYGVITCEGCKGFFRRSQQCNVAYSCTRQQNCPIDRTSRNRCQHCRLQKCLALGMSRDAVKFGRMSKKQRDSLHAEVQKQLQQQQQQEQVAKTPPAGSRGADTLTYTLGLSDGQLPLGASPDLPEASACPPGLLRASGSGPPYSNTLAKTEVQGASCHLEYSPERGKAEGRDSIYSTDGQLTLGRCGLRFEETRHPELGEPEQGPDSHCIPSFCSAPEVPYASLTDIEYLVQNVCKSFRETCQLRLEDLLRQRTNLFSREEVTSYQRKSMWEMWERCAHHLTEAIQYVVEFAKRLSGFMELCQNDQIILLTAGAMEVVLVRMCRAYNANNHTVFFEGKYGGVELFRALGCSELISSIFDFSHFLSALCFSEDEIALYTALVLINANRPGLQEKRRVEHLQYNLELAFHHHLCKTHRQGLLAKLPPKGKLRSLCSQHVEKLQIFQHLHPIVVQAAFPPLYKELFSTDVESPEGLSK
Description: Activity at RoRc in mouse CD4+ T cells assessed as inhibition of IL-17 production at 10 uM. It counts as cell-based. To be noted: T-cell.

Assay [8] concerns Mus musculus. Briefly: Decrease in serum IL-17a level in mouse at 30 mg/kg in presence of anti-CD3 antibody. It counts as functional.
Assay [9] relates to Mus musculus. Description: Decrease in serum IL-17a level in mouse at 100 mg/kg in presence of anti-CD3 antibody. The class given is functional.
Assay [10] concerns Mus musculus. Description: Decrease in serum IL-17a level in mouse at 300 mg/kg in presence of anti-CD3 antibody. The class given is functional.

With `CCS(=O)(=O)c1ccc(CC(=O)Nc2ccc(-c3ccccc3)c(Oc3ccccc3)c2)cc1`, the EC50 in assay [1] is < 50 nM.
In the case of `CCc1ccc(N(CC(C)C)S(=O)(=O)c2ccc(C(O)CN3CCOCC3)c(CO)c2)cc1` (configuration not stated), in [2], the EC50 amounted to 32 nM. Besides, the inhibition was 83% in assay [3] and 60% in assay [4].
As to `CCS(=O)(=O)c1ccc(CC(=O)Nc2ccc(-n3ccc(C)n3)c(Oc3cccc(OC(F)(F)F)c3)c2)cc1`, the EC50 in assay [1] was < 50 nM.
On to `C[C@H]1O[C@@H](O[C@H]2[C@@H](O)C[C@H](O[C@H]3[C@@H](O)C[C@H](O[C@H]4CC[C@@]5(C)[C@H](CC[C@@H]6[C@@H]5C[C@@H](O)[C@]5(C)[C@@H]([C@@H](CO)CCO)CC[C@]65O)C4)O[C@@H]3C)O[C@@H]2C)C[C@H](O)[C@@H]1O`, for which, in assay [5], the IC50 amounted to 12000 nM. This counts as double-digit micromolar.
Consider `COc1ccc(-c2c(-c3nc(CC(=O)NCC4CCOCC4)cs3)cnn2C(C)(C)C)cc1F`, for which the values for the inhibition in assay [6] and in [7] were 96% and 91%, respectively.
As to `CCn1c2ccccc2c2cc(NC(=O)CC(C)CC(=O)Nc3ccc(C#N)c(Cl)c3)ccc21` (configuration not stated), the inhibition in [7] worked out at 96%. The inhibition in vivo at 30 mg/kg in assay [8] turned out to be 10%. The inhibition in vivo at 100 mg/kg in assay [9] was 25%. For the same molecule, the inhibition in vivo at 300 mg/kg in assay [10] worked out at 53%.
